According to the supplement of paper PMC10307832:

Key:
Test in all cases: relative viability (nuclei count vs DMSO), 5 days (fraction); higher = more cells survive
Pemetrexed + OSI-027 = compound: Nc1nc2[nH]cc(CCc3ccc(C(=O)N[C@@H](CCC(=O)O)C(=O)O)cc3)c2c(=O)[nH]1 [Pemetrexed] + COc1cccc2cc(-c3nc([C@H]4CC[C@H](C(=O)O)CC4)n4ncnc(N)c34)[nH]c12 [OSI-027] (partner 0.5 µM)
In short: (§1)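 One day after seeding in 1536-well plates, lung cancer cell lines were dosed by pin tool. Dosing was either single-drug or a fixed anchor-drug dose plus five library-drug doses (not always all listed) in √10 steps. After 5 days, nuclei were stained in one fix-and-stain step and counted on 4× images, and relative viability is the nuclei count of treated wells over that of vehicle wells, given as the median of duplicate plates.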

Pemetrexed + Olaparib = compound: Nc1nc2[nH]cc(CCc3ccc(C(=O)N[C@@H](CCC(=O)O)C(=O)O)cc3)c2c(=O)[nH]1 [Pemetrexed] + O=C(c1cc(Cc2n[nH]c(=O)c3ccccc23)ccc1F)N1CCN(C(=O)C2CC2)CC1 [Olaparib] (partner 8 µM)
In short: as §1

Pemetrexed + Crizotinib = compound: Nc1nc2[nH]cc(CCc3ccc(C(=O)N[C@@H](CCC(=O)O)C(=O)O)cc3)c2c(=O)[nH]1 [Pemetrexed] + C[C@@H](Oc1cc(-c2cnn(C3CCNCC3)c2)cnc1N)c1c(Cl)ccc(F)c1Cl [Crizotinib] (partner 1 µM)
In short: as §1

Pemetrexed + Trametinib = compound: Nc1nc2[nH]cc(CCc3ccc(C(=O)N[C@@H](CCC(=O)O)C(=O)O)cc3)c2c(=O)[nH]1 [Pemetrexed] + CC(=O)Nc1cccc(-n2c(=O)n(C3CC3)c(=O)c3c(Nc4ccc(I)cc4F)n(C)c(=O)c(C)c32)c1 [Trametinib] (partner 0.02 µM)
In short: as §1

Cell Line | relative viability (Pemetrexed + OSI-027; first compound 0.002 µM) | relative viability (Pemetrexed + OSI-027; first compound 0.006325 µM) | relative viability (Pemetrexed + OSI-027; first compound 0.02 µM) | relative viability (Pemetrexed + OSI-027; first compound 0.06325 µM) | relative viability (Pemetrexed + OSI-027; first compound 0.2 µM) | relative viability (Pemetrexed + Olaparib; first compound 0.002 µM) | relative viability (Pemetrexed + Olaparib; first compound 0.006325 µM) | relative viability (Pemetrexed + Olaparib; first compound 0.02 µM) | relative viability (Pemetrexed + Olaparib; first compound 0.06325 µM) | relative viability (Pemetrexed + Olaparib; first compound 0.2 µM) | relative viability (Pemetrexed + Crizotinib; first compound 0.002 µM) | relative viability (Pemetrexed + Crizotinib; first compound 0.006325 µM) | relative viability (Pemetrexed + Crizotinib; first compound 0.02 µM) | relative viability (Pemetrexed + Crizotinib; first compound 0.06325 µM) | relative viability (Pemetrexed + Crizotinib; first compound 0.2 µM) | relative viability (Pemetrexed + Trametinib; first compound 0.002 µM) | relative viability (Pemetrexed + Trametinib; first compound 0.006325 µM) | relative viability (Pemetrexed + Trametinib; first compound 0.02 µM) | relative viability (Pemetrexed + Trametinib; first compound 0.06325 µM) | relative viability (Pemetrexed + Trametinib; first compound 0.2 µM)
NCI-H1755 | 0.685 | 0.797 | 0.782 | 0.691 | 0.667 | 0.777 | 0.857 | 0.875 | 0.89 | 0.781 | 0.787 | 0.814 | 0.897 | 0.973 | 0.78 | 0.737 | 0.809 | 0.775 | 0.731 | 0.732
NCI-H661 | 0.782 | 0.711 | 0.767 | 0.698 | 0.694 | 0.741 | 0.743 | 0.71 | 0.759 | 0.679 | 1.06 | 1.03 | 0.949 | – | 0.944 | 0.659 | 0.524 | 0.705 | 0.549 | 0.571
NCI-H1944 | – | 0.512 | 0.43 | 0.405 | 0.403 | 0.317 | 0.368 | 0.395 | 0.393 | 0.402 | 0.911 | 1.02 | 1.19 | 1.11 | 1 | 0.354 | 0.449 | 0.45 | 0.407 | 0.38
NCI-H23 | 0.516 | 0.532 | 0.623 | 0.684 | 0.663 | 0.318 | 0.335 | 0.331 | 0.32 | 0.319 | 0.507 | 0.467 | 0.589 | 0.438 | 0.425 | 0.426 | 0.294 | 0.408 | 0.375 | 0.381
NCI-H1648 | 0.253 | 0.268 | 0.22 | – | 0.26 | 0.953 | 0.926 | 0.768 | 0.732 | 0.766 | – | – | – | – | – | 0.517 | 0.292 | 0.63 | 0.398 | 0.442
NCI-H522 | 0.794 | 0.65 | 0.796 | 0.706 | 0.676 | 0.484 | 0.549 | 0.572 | 0.511 | 0.703 | – | – | – | – | – | 0.971 | 0.722 | 0.739 | 0.784 | 0.73
HCC-366 | 0.485 | 0.795 | 1.04 | 0.922 | 0.816 | 0.345 | 0.432 | 0.385 | 0.36 | 0.332 | 0.49 | 0.404 | 0.701 | 0.586 | 0.476 | 0.39 | 0.311 | 0.406 | 0.341 | 0.302
EBC-1 | – | – | – | – | – | 0.684 | 0.714 | 0.723 | 0.665 | 0.545 | 0.175 | 0.174 | 0.209 | 0.165 | 0.183 | – | – | – | – | –
ChaGo-K-1 | 0.572 | 0.59 | 0.61 | 0.317 | 0.23 | 0.483 | 0.423 | 0.464 | 0.383 | 0.259 | 1.15 | 1 | 0.969 | 0.366 | 0.344 | 0.902 | 0.848 | 0.871 | 0.662 | 0.31
LCLC-97TM1 | 0.552 | 0.361 | 0.61 | 0.477 | 0.235 | 0.442 | 0.327 | 0.457 | 0.426 | 0.411 | 0.263 | 0.352 | 0.404 | 0.338 | 0.224 | 0.21 | 0.189 | 0.179 | 0.211 | 0.184
NCI-H1299 | – | – | – | – | – | 0.967 | 0.913 | 0.949 | 0.956 | 0.983 | 0.962 | 0.942 | 0.98 | 0.881 | 0.927 | – | – | – | – | –
EMC-BAC-2 | 0.352 | 0.338 | 0.4 | 0.372 | 0.363 | 0.455 | 0.458 | 0.5 | 0.493 | 0.497 | 0.76 | 0.639 | 0.831 | 0.803 | 0.741 | 0.826 | 0.755 | 0.986 | 0.807 | 0.618
NCI-H1623 | 0.406 | 0.451 | 0.552 | 0.462 | 0.426 | – | – | – | – | – | – | – | – | – | – | – | – | – | – | –
NCI-H441 | 0.63 | 0.504 | 0.574 | 0.431 | 0.368 | 0.458 | 0.534 | 0.56 | 0.567 | 0.252 | 0.608 | 0.777 | 0.865 | 0.567 | 0.396 | 0.536 | 0.501 | 0.448 | 0.303 | 0.247
LCLC-103H | 0.409 | 0.474 | 0.549 | 0.463 | 0.553 | 0.732 | 0.707 | 0.791 | 0.78 | 0.679 | 0.94 | 1.01 | 1.07 | 1.08 | 1.07 | 0.659 | 0.639 | 0.734 | 0.698 | 0.677
NCI-H1793 | 0.251 | 0.259 | 0.309 | 0.284 | 0.289 | 0.868 | 0.712 | 0.912 | 0.919 | 0.774 | – | – | – | – | – | 0.411 | 0.323 | 0.381 | 0.423 | 0.424
IA-LM | – | – | – | – | – | 0.74 | 0.725 | 0.926 | 0.889 | 0.852 | 0.807 | 0.665 | 0.772 | 0.804 | 0.634 | – | – | – | – | –
A549 | – | – | – | – | – | 0.29 | 0.292 | 0.379 | 0.338 | 0.343 | 0.672 | 0.653 | 0.971 | 0.761 | 0.78 | – | – | – | – | –
NCI-H1563 | 0.731 | 0.695 | 0.803 | 0.728 | 0.778 | – | – | – | – | – | 0.946 | 0.837 | 0.878 | 0.911 | 0.938 | – | – | – | – | –
Calu-6 | – | – | – | – | – | – | 0.525 | 0.646 | 0.524 | 0.578 | 0.814 | 0.754 | 0.922 | 0.72 | 0.68 | – | – | – | – | –
NCI-H2342 | 0.537 | 0.618 | 0.593 | 0.633 | 0.698 | 0.409 | 0.407 | 0.467 | 0.452 | 0.424 | – | – | – | – | – | 0.763 | 0.757 | 0.773 | 0.857 | 0.841
